We go through 19 compounds from patent US20230340419A1, “METHODS FOR GENERATION OF MOUSE AND HUMAN URETERIC BUD ORGANOIDS AND COLLECTING DUCT ORGANOIDS” (University of Southern California, priority 2020, published 2023).

What all share (assay type): cell-based, mouse
The subject of data set [1] is Wnt11-RFP UB organoid. As to the kind of experiment: Stage III 1st round screening of growth factors and small molecules for UB organoid culture condition. As to conditions: for Wnt11-RFP / Organoid growth: reagent added to FGF9 + C3 + TTNPB + GDNF, compared to that control group; for Effect when used individually: individual versus combinatorial use of JAKI and SB202190. The source says: We employed this Wnt11-RFP reporter system as a readout to screen for a culture condition that maintained the progenitor identity of UPCs in vitro. T-shaped UBs were manually isolated from E11.5 kidneys of Wnt11-RFP mice, and immediately embedded into Matrigel to set up a 3D culture platform that supported epithelial branching. In this 3D culture format, built on previous efforts towards the ex vivo culture of UB, hundreds of different combinations of growth factors and small molecules were tested (see also the Materials and Techniques section below for details under subheading “Screening for optimal UB culture condition”).
We systematically screened the optimal UB culture condition in four different stages (Stages I-IV).
In Stage III, based on the optimized recipe consisting of FGF9, TTNPB, CHIR99021 (3 μM) and GDNF, we preformed our 1st round of screening of growth factors and small molecules targeting major developmental pathways (e.g. TGF-β, BMP, Wnt, FGF, Hedgehog and Notch) and others. The branching morphogenesis, growth rate and Wnt11-RFP were recorded as readouts (Table 1). […] Representative images were taken at least for LDN193189, A83-01, and R-Spondin 1. These individual hits were then subjected to a 2nd round of screening to test their effects in various combinations, eventually leading to the identification of the optimal UB progenitor culture medium UBCM consisting of FGF9, TTNPB, CHIR99021 (3 μM), GDNF, LDN193189, A83-01, R-Spondin1, JAKI and SB202190.

A further data set concerns UB organoids. Put plainly: 2nd round of CD differentiation condition screening (qRT-PCR of Aqp2 and Foxi1). As to conditions: for Aqp2 expression / Foxi1 expression: qRT-PCR, 7 days, under hBI+FGF9+Y27632 condition. The method, then:
The functions of the mature renal CD system are carried out by two major cell populations that are intermingled throughout the entire CD network. The more abundant principal cells (PCs) concentrate the urine and regulate Na^+/K^+ homeostasis via water and Na^+/K^+ transporters. The less abundant α- and β-intercalated cells (ICs) regulate normal acid-base homeostasis via secretion of H^+ or HCO3^− into the urine. The absence of an in vitro system recapitulating PC and IC development in an appropriate 3D context, constrains physiological exploration, disease modeling and drug screening on the renal CD system. With this limitation in mind, we developed a screen to establish conditions supporting the differentiation of CD organoids, assaying expression of Aqp2 and Foxi1, definitive markers for PC and IC lineages, respectively, by quantitative reverse transcription PCR (qRT-PCR), following 7 days of culture under variable but defined culture conditions (FIG. 2A).
Agonists or antagonists targeting major developmental pathways (e.g. TGF-β, BMP, Wnt, FGF, Hedgehog and Notch) were tested, together with hormonal inputs known to regulate PC or IC activity (aldosterone and vasopressin).
Background: In qPCR the cycle at which signal appears reflects the starting amount.

For data set [2], the system named is Wnt11-RFP UB organoid. Put plainly: Withdrawal of individual components from UBCM (Stage IV validation). The conditions noted are these: component withdrawn from UBCM. The source says: To determine whether UBCM culture conditions enabled clonal growth from a single UPC, dissociated E11.5 UBs were embedded at clonal density in Matrigel and cultured in UBCM medium. Around 30% of the single cells self-organized into E11.5 UB-like budding structures within 5 days, though a smaller percentage (3-5%) maintained Wnt11-RFP (FIG. 1G), an efficiency similar to clonal organoid formation for Lgr5^+ intestinal stem cells. Importantly, the clonally-derived Wnt11-RFP^+ budding structures were identical to intact E11.5 UB-derived organoids in both branching morphology and growth rate (Table 3, FIG. 1H).
Lastly, in Stage IV, we asked whether each of the components in UBCM was essential.

For another data set, the system named is Wnt11-RFP UB. Put plainly: Stage II optimisation of individual UB medium components. The conditions noted are these: titrated at 1, 3 and 6 μM. The source says: In Stage II, we optimized the individual medium components employed by Yuri et al. (FGF1, RA, CHIR99021, and GDNF). We first asked if each individual factor was necessary in the medium. […] Then we further optimized these factors. RA is known to be unstable in tissue culture, so we replaced it with another widely used small molecule RA substitute TTNPB. CHIR99021 was used at 1p M by Yuri et al., but based on our own experiences and literature, different doses of CHIR99021 often have different biological effects. So we titrated it from 1p M, 3p M, to 6 μM, from which we identified 3 μM to be the optimal concentration. […] GDNF was unchanged in the medium, considering its essential role in maintaining the UB progenitor population in vitro and in vivo.

On to FGF20: member of the FGF family, for which the Wnt11-RFP result with Wnt11-RFP UB organoid [1] is reported as “Worse”.
Same read-out and setting: next, FGF2: member of the FGF family: “Worse”.
As to `NC(=O)CC[C@@H]1NC(=O)[C@H](Cc2ccccc2)NC(=O)[C@H](Cc2ccc(O)cc2)NC(=O)[C@@H](N)CSSC[C@@H](C(=O)N2CCC[C@H]2C(=O)N[C@@H](CCCN=C(N)N)C(=O)NCC(N)=O)NC(=O)[C@H](CC(N)=O)NC1=O` [Vasopressin], the Aqp2 expression result with UB organoids is reported as “enhanced”.
Turning to Verteporfin, in the data set with Wnt11-RFP UB organoid [1], the Organoid growth result was “Dead”.
Turning to “EGF: epidermal growth factor (NSDSECPLSHDGYCLHDGVCMYIEALDKYACNCVVGYIGERCQYRDLKWWELR; Epidermal growth factor; UniProt P01133 971-1023, looked up)”, in the data set on Wnt11-RFP UB organoid [1], the Wnt11-RFP result is recorded as “Better”.
Still for that read-out and setting: the same measure for `NC(=O)c1ncn([C@@H]2O[C@H](CO)[C@@H](O)[C@H]2O)c1N` [AICAR]: “Slighty Better”.
Take “Activin A: growth factor tested in screening”: in the data set on UB organoids, the Note entry is given as “Dramatic”. In addition, in the data set on Wnt11-RFP UB organoid [1], the Organoid growth entry was “Slower” and the Wnt11-RFP entry is “Worse”.
Regarding `Cc1c[nH]c(-c2cnc(NCCNc3ccc(C#N)cn3)nc2-c2ccc(Cl)cc2Cl)n1` [CHIR99021], in the data set on Wnt11-RFP UB organoid [2], the “Effect of withdrawal of the component from UBCM on organoid growth” value was “growth arrest”. Besides, the Optimal concentration in the data set with Wnt11-RFP UB was found to be 3 µM.
On to Heparin, for which the Wnt11-RFP entry in the data set on Wnt11-RFP UB organoid [1] was “Slightly Better”.
Same read-out and setting: the same measure for `Cc1cccc(-c2nn(C(=S)Nc3ccccc3)cc2-c2ccnc3ccccc23)n1` [A83-01]: “Better”.
Consider `CN(C)C(=N)NC(=N)N` [Melformin], for which, in the data set with Wnt11-RFP UB organoid [1], the Wnt11-RFP entry was “Slightly Better”.
Turning to `c1ccc2c(-c3cnn4cc(-c5ccc(N6CCNCC6)cc5)cnc34)ccnc2c1` [LDN193189], in the data set on Wnt11-RFP UB organoid [1], the Wnt11-RFP result was “Better”.
With `C[C@H](NC(=O)Cc1cc(F)cc(F)c1)C(=O)N[C@H](C(=O)OC(C)(C)C)c1ccccc1` [DAPT], in the data set with UB organoids, the Aqp2 expression result is reported as “dramatically increased” and the Foxi1 expression result was “dramatically increased”. Moreover, the Wnt11-RFP entry with Wnt11-RFP UB organoid [1] was “Better”.
On to `CC(C)(C)c1nc2c3cc[nH]c(=O)c3c3cc(F)ccc3c2[nH]1` [JAKI], for which, in the data set on UB organoids, the Aqp2 expression result is “dramatically increased” and the Foxi1 expression entry is “dramatically increased”. Further, in the data set on Wnt11-RFP UB organoid [1], the “Effect when used individually” value is “only marginal effects” and the Wnt11-RFP entry is recorded as “Slightly Better”.
Regarding `C[C@]12CCC(=O)C=C1CC[C@@H]1[C@@H]2[C@@H](O)C[C@]2(C=O)[C@@H](C(=O)CO)CC[C@@H]12` [Aldosterone], in the data set on UB organoids, the Foxi1 expression entry is recorded as “preferential increase”.
On to `CN1C(=O)c2sccc2N(C)c2nc(Nc3ccc(S(N)(=O)=O)cc3)ncc21` [XMU-MP-1], for which the Organoid growth entry with Wnt11-RFP UB organoid [1] is on record as “No growth”.
On to `Oc1ccc(-c2nc(-c3ccncc3)c(-c3ccc(F)cc3)[nH]2)cc1` [S6202190], for which, in the data set on Wnt11-RFP UB organoid [1], the “Effect when used individually” value is “only marginal effects” and the Wnt11-RFP result is “Slightly Better”.
Regarding SCF: growth factor tested in screening, in the data set with Wnt11-RFP UB organoid [1], the Organoid growth result is listed as “Slightly better” and the Wnt11-RFP result is “Better”.
Take `O=C(NOC[C@H](O)CO)c1ccc(F)c(F)c1Nc1ccc(I)cc1F` [PD0325901]: in the data set on UB organoids, the Aqp2 expression result is given as “dramatically increased” and the Foxi1 expression result is on record as “dramatically increased”. Moreover, in the data set with Wnt11-RFP UB organoid [1], the Organoid growth entry was “No growth” and the Wnt11-RFP entry is reported as “Dead at D 6”.
